Test results as given in patent US4303664A, “Novel penicillin derivatives containing a coumarin nucleus and medicines containing the same” (Teijin Limited, priority 1978, dated 1981).
In brackets after ≈: the same amount, converted by molar mass.

How the values were obtained:
[1] = tested on: Staphylococcus aureus 209-p; test: Bactericidal test (MIC), Staphylococcus aureus 209-p; type: cell-based; conditions: (1) Staphylococcus aureus 209-p
From the text: (§1) Results of bactericidal tests (MIC, r/ml) on the penicillin derivatives of this invention prepared in the above examples are shown in the following table.

[2] = tested on: Staphylococcus aureus 1248; test: Bactericidal test (MIC), Staphylococcus aureus 1248; type: cell-based; conditions: (2) Staphylococcus aureus 1248; read-out: MIC
From the text: as §1

Bacillus subtilis = test: Bactericidal test (MIC), Bacillus subtilis; type: cell-based; conditions: (3) Bacillus subtilis
From the text: as §1

[3] = tested on: Salmonella typhimurium G-20; test: Bactericidal test (MIC), Salmonella typhimurium G-20; type: cell-based; conditions: Salmonella enterica; (4) Salmonella typhimurium G-20
From the text: as §1

[4] = tested on: Escherichia Coli NIHJ JC-2; test: Bactericidal test (MIC), Escherichia Coli NIHJ JC-2; type: cell-based; conditions: NIHJJC2; (5) Escherichia Coli NIHJ JC-2
From the text: as §1

[5] = tested on: Klebsiella neumoniae ATCC10031; test: Bactericidal test (MIC), Klebsiella neumoniae ATCC10031; type: cell-based; conditions: (6) Klebsiella neumoniae ATCC10031; read-out: MIC
From the text: as §1

Enterobactor cloacae 147 = test: Bactericidal test (MIC), Enterobactor cloacae 147; type: cell-based; conditions: (7) Enterobactor cloacae 147
From the text: as §1

[6] = tested on: Enterobacter cloacae IF012937; test: Bactericidal test (MIC), Enterobacter cloacae IF012937; type: cell-based; conditions: (8) Enterobacter cloacae IF012937
From the text: as §1

Morganella var. G-2 = test: Bactericidal test (MIC), Morganella var. G-2; type: cell-based; conditions: VAR.G2; (9) Morganella var. G-2; read-out: MIC
From the text: as §1

Rettgerella var. Tid-21 = test: Bactericidal test (MIC), Rettgerella var. Tid-21; type: cell-based; conditions: (10) Rettgerella var. Tid-21; read-out: MIC
From the text: as §1

Serratia G-18 = test: Bactericidal test (MIC), Serratia G-18; type: cell-based; conditions: G18; (11) Serratia G-18; read-out: MIC
From the text: as §1

[7] = tested on: Pseudomonas aeruginosa IFO-3080; test: Bactericidal test (MIC), Pseudomonas aeruginosa IFO-3080; type: cell-based; conditions: IFO3080; (12) Pseudomonas aeruginosa IFO-3080; read-out: MIC
From the text: as §1

[8] = tested on: Pseudomonas aeruginosa 0-37; test: Bactericidal test (MIC), Pseudomonas aeruginosa 0-37; type: cell-based; conditions: 037; (13) Pseudomonas aeruginosa 0-37
From the text: as §1

[9] = tested on: Pseudomonas aeruginosa Tid-53; test: Bactericidal test (MIC), Pseudomonas aeruginosa Tid-53; type: cell-based; conditions: TID53; (14) Pseudomonas aeruginosa Tid-53
From the text: as §1

[10] = tested on: Pseudomonas aeruginosa GN-315; test: Bactericidal test (MIC), Pseudomonas aeruginosa GN-315; type: cell-based; conditions: GN315; (15) Pseudomonas aeruginosa GN-315
From the text: as §1

[11] = tested on: Pseudomonas aeruginosa 130; test: Bactericidal test (MIC), Pseudomonas aeruginosa 130; type: cell-based; conditions: (16) Pseudomonas aeruginosa 130
From the text: as §1

[12] = Acute toxicity values [(LD50), mouse]; conditions: in vivo
From the text: Acute toxicity values [(LD50), mouse] of some penicillin derivatives of this invention are illustrated in the following table.

[13] = Rates of protein fixation (human serum protein); type: in vitro ADME; conditions: read-out: Rate of protein fixation (converted)
From the text: Rates of protein fixation (human serum protein) of the penicillin derivatives of this invention are illustrated as follows: […]

| SMILES | MIC [1] [mg/L] | MIC [2] [mg/L] | MIC (Bacillus subtilis) [mg/L] | MIC [3] [mg/L] | MIC [4] [mg/L] | MIC [5] [mg/L] | MIC (Enterobactor cloacae 147) [mg/L] | MIC [6] [mg/L] | MIC (Morganella var. G-2) [mg/L] | MIC (Rettgerella var. Tid-21) [mg/L] | MIC (Serratia G-18) [mg/L] | MIC [7] [mg/L] | MIC [8] [mg/L] | MIC [9] [mg/L] | MIC [10] [mg/L] | MIC [11] [mg/L] | LD50 ([12]; Oral) [mg/kg] | fraction unbound [13] | LD50 ([12]; ip, Intraabdominal) [mg/kg] |
| --- | --- | --- | --- | --- | --- | --- | --- | --- | --- | --- | --- | --- | --- | --- | --- | --- | --- | --- | --- |
| CC1(C)S[C@@H]2[C@H](NC(=O)[C@H](NC(=O)c3cc4ccccc4oc3=O)c3ccccc3)C(=O)N2[C@H]1C(=O)O [Example 1, D(-)-α-(Coumarin-3-carbonamido)benzylpenicillin] | < 0.4 | 1.56 (≈ 2.99 µM) | < 0.4 | < 0.4 | < 0.4 | < 0.4 | 3.13 (≈ 6 µM) | 6.25 (≈ 12 µM) | 3.13 (≈ 6 µM) | 1.56 (≈ 2.99 µM) | 12.5 (≈ 24 µM) | < 0.4 | 12.5 (≈ 24 µM) | 3.13 (≈ 6 µM) | 1.56 (≈ 2.99 µM) | < 0.4 | > 4000 | – | – |
| CC1(C)S[C@@H]2[C@H](NC(=O)[C@H](NC(=O)c3cc4cc(Cl)ccc4oc3=O)c3ccccc3)C(=O)N2[C@H]1C(=O)O [Example 2, D(-)-α-(6-Chlorocoumarin-3-carbonamido)benzylpenicillin] | < 0.4 | 1.56 (≈ 2.81 µM) | < 0.4 | < 0.4 | < 0.4 | 1.56 (≈ 2.81 µM) | 25 (≈ 45 µM) | 25 (≈ 45 µM) | 12.5 (≈ 22.5 µM) | 12.5 (≈ 22.5 µM) | 50 (≈ 89.9 µM) | 3.13 (≈ 5.63 µM) | 50 (≈ 89.9 µM) | 25 (≈ 45 µM) | 25 (≈ 45 µM) | 6.25 (≈ 11.2 µM) | – | 0.33 | – |
| CC1(C)S[C@@H]2[C@H](NC(=O)[C@H](NC(=O)c3cc4cc(Br)ccc4oc3=O)c3ccccc3)C(=O)N2[C@H]1C(=O)O [Example 3, D(-)-α-(6-Bromocoumarin-3-carbonamido)benzylpenicillin] | < 0.4 | 1.56 (≈ 2.6 µM) | < 0.4 | < 0.4 | < 0.4 | 1.56 (≈ 2.6 µM) | 3.13 (≈ 5.21 µM) | 25 (≈ 41.6 µM) | 6.25 (≈ 10.4 µM) | 6.25 (≈ 10.4 µM) | 25 (≈ 41.6 µM) | 1.56 (≈ 2.6 µM) | 25 (≈ 41.6 µM) | 6.25 (≈ 10.4 µM) | 6.25 (≈ 10.4 µM) | 1.56 (≈ 2.6 µM) | – | 0.2 | – |
| COc1cccc2cc(C(=O)N[C@@H](C(=O)N[C@@H]3C(=O)N4[C@@H]3SC(C)(C)[C@@H]4C(=O)O)c3ccccc3)c(=O)oc12 [Example 6, D(-)-α-(8-Methoxycoumarin-3-carbonamido)benzylpenicillin] | < 0.4 | 0.8 (≈ 1.45 µM) | < 0.4 | < 0.4 | < 0.4 | 0.8 (≈ 1.45 µM) | 3.13 (≈ 5.67 µM) | 6.25 (≈ 11.3 µM) | 0.8 (≈ 1.45 µM) | 3.13 (≈ 5.67 µM) | 6.25 (≈ 11.3 µM) | 0.8 (≈ 1.45 µM) | 12.5 (≈ 22.7 µM) | 6.25 (≈ 11.3 µM) | 3.13 (≈ 5.67 µM) | 1.56 (≈ 2.83 µM) | > 4000 | 0.42 | 2000 |
| CC1(C)S[C@@H]2[C@H](NC(=O)[C@H](NC(=O)c3cc4cc([N+](=O)[O-])ccc4oc3=O)c3ccccc3)C(=O)N2[C@H]1C(=O)O [Example 13, D(-)-α-(6-Nitrocoumarin-3-carbonamido)benzylpenicillin] | < 0.4 | 6.25 (≈ 11 µM) | < 0.4 | < 0.4 | < 0.4 | 12.5 (≈ 22.1 µM) | 25 (≈ 44.1 µM) | 12.5 (≈ 22.1 µM) | 6.25 (≈ 11 µM) | 50 (≈ 88.3 µM) | 50 (≈ 88.3 µM) | 6.25 (≈ 11 µM) | 100 (≈ 177 µM) | 25 (≈ 44.1 µM) | 12.5 (≈ 22.1 µM) | 6.25 (≈ 11 µM) | – | – | – |
| COC(=O)c1cccc2cc(C(=O)N[C@@H](C(=O)N[C@@H]3C(=O)N4[C@@H]3SC(C)(C)[C@@H]4C(=O)O)c3ccccc3)c(=O)oc12 [Example 14, D(-)-α-(8-Methoxycarbonylcoumarin-3-carbonamido)benzylpenicillin] | < 0.4 | 3.13 (≈ 5.4 µM) | < 0.4 | < 0.4 | < 0.4 | 1.56 (≈ 2.69 µM) | 25 (≈ 43.1 µM) | 6.25 (≈ 10.8 µM) | 1.56 (≈ 2.69 µM) | 12.5 (≈ 21.6 µM) | 12.5 (≈ 21.6 µM) | 3.13 (≈ 5.4 µM) | 100 (≈ 173 µM) | 25 (≈ 43.1 µM) | 12.5 (≈ 21.6 µM) | 3.13 (≈ 5.4 µM) | – | – | – |
